Experimental findings from ChEMBL document CHEMBL1201862, “PubChem BioAssay data set” (2004) are described below.

Molecules are shown by their SMILES.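 Compound exposure: 48 hours, 5 concentrations, 96-well plates. At the GI50, growth is halved.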 The source made the active and inactive calls. Rule as the data show it: active = GI50 up to about 1.1 µM and inactive = higher.

Among the test systems are SK-MEL-2; IGROV-1; MDA-MB-435; NCI-H23; KM12; MDA-N; M14; ACHN; SF-539; COLO 205; A549; SR; UACC-62; CCRF-CEM; CAKI-1; SK-MEL-5; U-251; HCT-116; SF-268; A498.
Assay in all cases: inhibition of tumour cell growth, NCI panel, 48 h

As for `C=C1c2ccccc2C(=O)c2c1c1c(C(=O)OC)c(O)ccc1n2Cc1ccccc1`, the GI50 in the test on SK-MEL-2 was 0.817 µM (active); in the test on IGROV-1, 0.234 µM (active); in the test with MDA-MB-435, 0.255 µM (active); in the test on NCI-H23, 0.713 µM (active); with KM12 it was 0.459 µM (active); in the test with MDA-N, 0.32 µM (active). Moreover, the GI50 in the test on M14 is 0.314 µM (active); in the test with ACHN, 0.454 µM (active); with SF-539 it was 0.228 µM (active); in the test with COLO 205, 1.97 µM (inactive); with A549, 1.11 µM (active); in the test with SR, 0.132 µM (active). For the same molecule, the GI50 with UACC-62 is 0.284 µM (active); in the test on CCRF-CEM, 0.203 µM (active); in the test with CAKI-1, 0.407 µM (active); with SK-MEL-5, 0.7 µM (active); with U-251 it was 0.333 µM (active); in the test on HCT-116, 0.557 µM (active). For the same molecule, in the test on SF-268, the GI50 was 0.175 µM (active).

As for `CSc1cc(-c2cccs2)sc1-c1cc(SC)c(-c2sc(-c3sc(-c4cccs4)cc3SC)cc2SC)s1`, the GI50 in the test on SK-MEL-2, with IGROV-1, in the test on MDA-MB-435, in the test with NCI-H23, with KM12 and with MDA-N was > 100 µM (inactive) throughout. Moreover, the GI50 with M14, with ACHN, in the test on SF-539, in the test with COLO 205, in the test with A549 and in the test on UACC-62 was > 100 µM (inactive) throughout. For the same molecule, the GI50 in the test on CCRF-CEM, in the test on CAKI-1, in the test with A498, in the test on SK-MEL-5, in the test on U-251 and in the test on HCT-116 was > 100 µM (inactive) each time. The GI50 with SF-268 was > 100 µM (inactive).

As to `CN(c1ccc(Cl)cc1)S(=O)(=O)c1cccc([N+](=O)[O-])c1`, the GI50 with SK-MEL-2 was 44.2 µM (inactive); in the test with IGROV-1 it was > 100 µM (inactive); in the test on MDA-MB-435, 34.8 µM (inactive); with NCI-H23, 34.7 µM (inactive); with KM12, 52.6 µM (inactive); in the test on MDA-N it was 67.9 µM (inactive). Further, the GI50 with M14 is 43.4 µM (inactive); in the test with ACHN it was 99.1 µM (inactive); in the test on SF-539, 66.4 µM (inactive); in the test on COLO 205, 65 µM (inactive); in the test on A549, > 100 µM (inactive); in the test on SR it was 52.6 µM (inactive). The GI50 in the test with UACC-62 is 39.4 µM (inactive); in the test with CCRF-CEM, 27.5 µM (inactive); in the test with CAKI-1, 64.6 µM (inactive); in the test on SK-MEL-5, 27.4 µM (inactive); in the test with U-251, 64.4 µM (inactive); in the test with HCT-116 it was 34 µM (inactive). For the same molecule, the GI50 in the test with SF-268 is 66.7 µM (inactive).

Turning to `COc1cccc(-c2cc(=O)c3ccccc3o2)c1N`, the GI50 is 27.4 µM (inactive) in the test on SK-MEL-2; 87.5 µM (inactive) in the test with IGROV-1; 23 µM (inactive) in the test with MDA-MB-435; 72.9 µM (inactive) in the test on NCI-H23; > 100 µM (inactive) in the test with KM12; 24.4 µM (inactive) with MDA-N. For the same molecule, the GI50 in the test on M14 is 5.56 µM (inactive); in the test with ACHN, > 100 µM (inactive); in the test with SF-539, 63.5 µM (inactive); with COLO 205 it was 9.93 µM (inactive); in the test with A549 it was > 91.8 µM (inactive); with SR, > 100 µM (inactive). Also, the GI50 is 5.27 µM (inactive) with UACC-62; > 100 µM (inactive) with CCRF-CEM; > 100 µM (inactive) in the test on CAKI-1; 42.8 µM (inactive) in the test on SK-MEL-5; > 100 µM (inactive) in the test on U-251; 52 µM (inactive) with HCT-116. Moreover, the GI50 with SF-268 was 61.2 µM (inactive).

Consider `CC1[C@@H](OCc2ccccc2)COC(=O)N1Cc1ccccc1` (some centres undefined), for which the GI50 in the test on SK-MEL-2 is > 100 µM (inactive); in the test on IGROV-1 it was > 100 µM (inactive); in the test on MDA-MB-435, > 100 µM (inactive); with NCI-H23 it was 52.1 µM (inactive); in the test with KM12 it was > 100 µM (inactive); with MDA-N, > 100 µM (inactive). The GI50 was > 100 µM (inactive) in the test with M14; > 100 µM (inactive) in the test with ACHN; > 100 µM (inactive) in the test on COLO 205; 85.9 µM (inactive) with A549; > 100 µM (inactive) in the test with SR; > 100 µM (inactive) in the test on UACC-62. Besides, the GI50 was > 100 µM (inactive) in the test on CCRF-CEM; 69.5 µM (inactive) in the test on SK-MEL-5; > 100 µM (inactive) with U-251; > 100 µM (inactive) with HCT-116; > 100 µM (inactive) in the test with SF-268.

For the molecule `NCCS(=O)(=O)O` [TAURINE], the GI50 in the test on SK-MEL-2, with IGROV-1, in the test on MDA-MB-435, with NCI-H23, in the test on KM12 and with MDA-N was > 100 µM (inactive) in each case. Further, the GI50 with M14, in the test on ACHN, in the test on SF-539, in the test on COLO 205, with A549 and in the test with SR was > 100 µM (inactive) each time. Besides, the GI50 with CCRF-CEM, with CAKI-1, in the test on SK-MEL-5, in the test on U-251, with HCT-116 and with SF-268 was > 100 µM (inactive) each time.

As for `CCOC(=O)/C(=C\c1ccc(C#N)cc1)C(C)=O`, the GI50 with SK-MEL-2 was 15.2 µM (inactive); in the test on IGROV-1, 16.8 µM (inactive); in the test on MDA-MB-435, 26.8 µM (inactive); with NCI-H23 it was 17.5 µM (inactive); in the test with KM12 it was 18.6 µM (inactive); in the test on MDA-N, 31.1 µM (inactive). For the same molecule, the GI50 in the test on M14 was 30 µM (inactive); with ACHN it was 23.6 µM (inactive); with SF-539, 29 µM (inactive); with COLO 205, 31.3 µM (inactive); in the test on A549, 60.8 µM (inactive); in the test on UACC-62, 2.23 µM (inactive). In addition, the GI50 is 13.5 µM (inactive) in the test with CCRF-CEM; 22.2 µM (inactive) in the test with CAKI-1; 13.3 µM (inactive) in the test with A498; 21.5 µM (inactive) in the test with SK-MEL-5; 16.2 µM (inactive) with U-251; 23.3 µM (inactive) in the test on HCT-116. The GI50 in the test with SF-268 is 25.2 µM (inactive).

For `CCOC(=O)c1c[nH]cc1-c1cn(S(=O)(=O)c2ccccc2)cc1C`, the GI50 in the test on SK-MEL-2 is 32.2 µM (inactive); in the test with IGROV-1, 26.9 µM (inactive); in the test on MDA-MB-435, > 10 µM (inactive); in the test with NCI-H23, 24.6 µM (inactive); in the test on KM12, 19.6 µM (inactive); in the test on MDA-N it was 17.9 µM (inactive). Besides, the GI50 was 21.7 µM (inactive) in the test with M14; 18.9 µM (inactive) in the test with ACHN; 21.9 µM (inactive) in the test on SF-539; 20.1 µM (inactive) in the test with COLO 205; 30.5 µM (inactive) in the test with A549; 15.3 µM (inactive) in the test on UACC-62. Further, the GI50 was 24.9 µM (inactive) in the test with CCRF-CEM; 17.7 µM (inactive) in the test on CAKI-1; > 10 µM (inactive) with A498; > 10 µM (inactive) with SK-MEL-5; 25.6 µM (inactive) in the test with U-251; 21.6 µM (inactive) in the test on HCT-116. In the test on SF-268, the GI50 was 25.9 µM (inactive).
